Several values for one entry are separate records, joined by “and”; a condition that tells them apart may be missing. Equal entries are not always repeated.

The target in one experiment is T1, human LAT1 (Homo sapiens, UniProt Q01650). Kind of experiment: cis-inhibition assay: inhibition of [3H]-gabapentin uptake into HEK-hLAT1 cells. The experiment is classed as cell-based. Conditions: read-out: % Inhibition of [3H]-gabapentin uptake.
T1 sequence (Q01650 whole entry): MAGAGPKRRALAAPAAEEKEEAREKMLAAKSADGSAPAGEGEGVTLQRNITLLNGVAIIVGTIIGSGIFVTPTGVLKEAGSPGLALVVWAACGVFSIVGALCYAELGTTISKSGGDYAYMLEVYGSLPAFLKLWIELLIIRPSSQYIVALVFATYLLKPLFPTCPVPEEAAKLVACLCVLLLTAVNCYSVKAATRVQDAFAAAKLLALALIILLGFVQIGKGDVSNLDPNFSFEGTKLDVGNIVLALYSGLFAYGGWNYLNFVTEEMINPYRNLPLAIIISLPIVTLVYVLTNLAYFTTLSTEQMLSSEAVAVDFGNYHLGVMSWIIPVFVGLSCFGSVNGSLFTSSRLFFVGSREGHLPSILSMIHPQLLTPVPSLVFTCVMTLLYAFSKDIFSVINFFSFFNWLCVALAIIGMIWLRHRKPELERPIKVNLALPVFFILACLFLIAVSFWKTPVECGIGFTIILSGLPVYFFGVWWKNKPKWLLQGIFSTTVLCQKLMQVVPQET
T1 sequence (P08195 102-630 partner): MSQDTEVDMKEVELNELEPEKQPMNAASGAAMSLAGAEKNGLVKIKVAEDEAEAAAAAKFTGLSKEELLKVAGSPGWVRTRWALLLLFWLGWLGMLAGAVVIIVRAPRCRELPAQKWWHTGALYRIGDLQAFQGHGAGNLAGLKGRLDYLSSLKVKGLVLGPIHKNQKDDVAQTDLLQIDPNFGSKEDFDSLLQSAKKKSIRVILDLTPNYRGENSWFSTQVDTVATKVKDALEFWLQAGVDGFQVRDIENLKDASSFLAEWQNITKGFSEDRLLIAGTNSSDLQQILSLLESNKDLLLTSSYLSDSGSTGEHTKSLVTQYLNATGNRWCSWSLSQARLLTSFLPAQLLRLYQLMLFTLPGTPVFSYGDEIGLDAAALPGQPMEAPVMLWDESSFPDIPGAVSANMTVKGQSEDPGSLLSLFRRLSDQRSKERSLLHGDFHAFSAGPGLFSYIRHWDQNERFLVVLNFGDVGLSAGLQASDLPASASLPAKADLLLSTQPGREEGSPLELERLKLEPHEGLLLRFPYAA
In the case of `N[C@@H](Cc1c[nH]c2ccccc12)C(=O)O` [Compound 1d, tryptophan, reference compound], the inhibition at 200 µM is 79 ± 0.6%.

As to `N[C@@H](Cc1ccc(O)cc1)C(=O)O` [Compound 1b, tyrosine], the inhibition at 200 µM is 68 ± 0.5%.

`N=C(N)NCCC[C@H](N)C(=O)O` [Compound 1i, reference compound]: the inhibition at 200 µM was 49 ± 2%.

On to `N[C@@H](Cc1ccccc1)C(=O)O` [Compound 1a, phenylalanine, reference compound], for which the inhibition at 200 µM was found to be 85 ± 0.6%.

The target of another experiment is T1, human LAT1.
Assay: not given
The experiment is classed as cell-based. To be noted: compound at 200 μM; pre-loaded HEK-hLAT1 cells; at least triplicate.
As for `CC[C@H](C)[C@H](N)C(=O)O` [Compound 1f, isoleucine, reference compound], the “Efflux Rate of [3H]-gabapentin” value was 2.5 ± 0.1 fmol/min.

With `NCC(=O)NO` [Compound 12h], the “Efflux Rate of [3H]-gabapentin” value was determined as 0.70 ± 0.1 fmol/min.

For `N[C@@H](Cc1c[nH]c2ccccc12)C(=O)O` [Compound 1d, tryptophan, reference compound], the “Efflux Rate of [3H]-gabapentin” value was determined as 1.6 ± 0.3 fmol/min.

As to `CC(C)C[C@H](N)C(N)=O.Cl` [Compound 13e, leucinamide], the “Efflux Rate of [3H]-gabapentin” value was 0.69 fmol/min and 0.69 ± 0.01 fmol/min.

`CSCC[C@H](N)C(=O)NO.Cl` [Compound 12g]: the “Efflux Rate of [3H]-gabapentin” value came out at 1.1 ± 0.01 fmol/min.

Regarding `CS(=O)(=O)NC(=O)[C@@H](N)Cc1ccccc1` [Compound 10a], the “Efflux Rate of [3H]-gabapentin” value was determined as 0.61 ± 0.06 fmol/min.

For `N[C@@H](Cc1c[nH]c2ccccc12)C(=O)NO` [Compound 12d], the “Efflux Rate of [3H]-gabapentin” value is on record as 1.0 ± 0.1 fmol/min.

With `N[C@@H](Cc1ccccc1)c1nnn[nH]1` [Compound 11], the “Efflux Rate of [3H]-gabapentin” value was 0.61 ± 0.01 fmol/min.

As for `CS(=O)(=O)NC(=O)[C@@H](N)Cc1ccc(O)cc1` [Compound 10b], the “Efflux Rate of [3H]-gabapentin” value came to 0.63 ± 0.03 fmol/min.

For the compound `CC(C)C[C@H](N)C(=O)NO.Cl` [Compound 12e], the “Efflux Rate of [3H]-gabapentin” value is 1.5 fmol/min and 1.5 ± 0.1 fmol/min.

Take `N=C(N)NCCC[C@H](N)C(=O)O` [Compound 1i, reference compound]: the “Efflux Rate of [3H]-gabapentin” value was 0.75 ± 0.1 fmol/min.

Take `N[C@@H](Cc1ccc(O)cc1)C(=O)NO` [Compound 12b]: the “Efflux Rate of [3H]-gabapentin” value is listed as 1.0 ± 0.1 fmol/min.

For the compound `CC[C@H](C)[C@H](N)C(=O)NO.Cl` [Compound 12f], the “Efflux Rate of [3H]-gabapentin” value was 1.5 fmol/min and 1.5 ± 0.2 fmol/min.

On to `CONC(=O)[C@@H](N)CC(C)C.Cl` [Compound 9e], for which the “Efflux Rate of [3H]-gabapentin” value was 2.1 fmol/min and 2.1 ± 0.2 fmol/min.

Turning to `CSCC[C@H](N)C(=O)O` [Compound 1g, methionine, reference compound], the “Efflux Rate of [3H]-gabapentin” value is recorded as 2.4 ± 0.1 fmol/min.

Regarding `N[C@@H](Cc1ccccc1)C(=O)O` [Compound 1a, phenylalanine, reference compound], the “Efflux Rate of [3H]-gabapentin” value was 3.6 fmol/min and 3.6 ± 0.7 fmol/min.

These data come from article PMC5076878 (Bioorganic & medicinal chemistry letters, 2016).
